Reference: US4439448A, “Glutamine derivatives” (Mitsubishi Chemical Industries Ltd., priority 1980, dated 1984)
Structures can show the parent of a compound that is named as a salt.

Key:
delayed hypersensitibity = test: TEST 3 effects on delayed hypersensitivity (sheep red blood cell paw edema); type: in vivo, mice, ddY strain; conditions: four consecutive days
Method: Into the palms of the right rear limbs of mice (ddY strain, weighing 25-30 g) was injected 40 μl of sheep red blood cells the concentration of which was adjusted to 1×10^7 /40 μl. The test drug was administered intraperitoneally or orally for four consecutive days inclusive of the day of sheep red blood cell administration. Three days after the day of sheep red blood cell administration, 40 μl of sheep red blood cells which were adjusted to have a concentration of 5×10^8 /40 μl were administered into the palms of the left rear limbs. After 24 hours, the thickness of the palms of the right and left rear limbs was measured. The edema was expressed as the difference in thickness between the palms of the left and right rear limbs. The results are shown in FIG. 3, in which the edema in the medicated group is expressed as percent control which means the percentage of the edema found in the group in which physiological saline is applied (control group).

[1] = system: plaque forming cells in the spleen of mice; test: TEST 2 effect on plaque forming cells in the spleen of mice inoculated with sheep red blood cells, Balb/c (Run 1); type: in vivo, mouse; conditions: 4 weeks, intravascular sheep cells, four consecutive days
Method: (§1) Mice were inoculated by intravascular or intraperitoneal administration of 1×10^8 sheep cells per animal. Each group consisted of five mice. The test drug was administered orally or intraperitoneally for four consecutive days from the day when the sheep cells were administered.

[2] = system: plaque forming cells in the spleen of mice; test: TEST 2 effect on plaque forming cells in the spleen of mice inoculated with sheep red blood cells, C3H/He (Run 2); type: in vivo, mouse; conditions: 7 weeks, I.P. sheep cells, four consecutive days
Method: as §1

ddY mice = test: TEST 1 acute toxicity in mice; type: in vivo
Description: The test drug was suspended in aqueous 50% solution of Tween 80 and administered to ddY mice weighing 20-25 g orally or intraperitoneally in doses indicated in Table 1 below.

rat adjuvant arthritis = test: TEST 4 effect on rat adjuvant arthritis; type: in vivo, Sprague-Dawley rats; conditions: 27 consecutive days
Method: The test animals were Sprague-Dawley rats at the age of 8 weeks and each group consisted of ten animals. An intracutaneous injection of 0.05 ml of a suspension of 0.5 mg of Mycobacterium butyricum in liquid paraffin was applied to each animal at the paw of the right rear limb. For 27 consecutive days from the day before the adjuvant injection, Compound (2) was orally administered at doses of 3, 10 and 30 mg/kg with measurement of the volume of the paw.

[3] = system: six strains as stipulated in the Labor Safety and Hygiene Law in Japan; test: mutagenicity test using six strains; type: cell-based; conditions: ~100 μg/plate
[4] = 1,000 mg/kg IP, during 7 days after administration
[5] = 5,000 mg/kg PO, during 7 days after administration

Row | Compound | % Control (edema, percentage of that in physiological saline control group) (delayed hypersensitibity; 30 mg/kg I.P.) [%] | % Control (edema, percentage of that in physiological saline control group) (delayed hypersensitibity; 100 mg/kg P.O.) [%] | % Control (edema, percentage of that in physiological saline control group) (delayed hypersensitibity; 3 mg/kg I.P.) [%] | % Control (edema, percentage of that in physiological saline control group) (delayed hypersensitibity; 10 mg/kg I.P.) [%] | % Control (edema, percentage of that in physiological saline control group) (delayed hypersensitibity; 30 mg/kg P.O.) [%] | % Control (edema, percentage of that in physiological saline control group) (delayed hypersensitibity; 300 mg/kg P.O.) [%] | further results
1 | Cn1cnc([N+](=O)[O-])c1Sc1ncnc2nc[nH]c12 [Azathioprine, reference compound] | 61.0 | 58.2 | – | – | – | – | PFC × 2,500/spleen (Mean ± standard error) ([1]; 50 mg/kg P.O.): 22.8 ± 2.40 PFC × 2,500/spleen; PFC × 2,500/spleen (Mean ± standard error) ([2]; 50 mg/kg P.O.): 46.7 ± 1.2 PFC × 2,500/spleen
2 | CCOC(=O)Cc1ccc(NC(=O)CC[C@@H](N)C(=O)O)cc1 [Compound (12), N-(4-Ethoxycarbonylmethylphenyl)-D-glutamine] | 89.1 | 81.7 | 76.1 | 107.9 | 85.4 | 80.7 | –
3 | CCOC(=O)C(CC)c1ccc(NC(=O)CC[C@H](N)C(=O)O)cc1 (stereo partly drawn) [Compound (13), N-[4-(1-Ethoxycarbonyl-n-propyl)phenyl]-L-glutamine] | 64.2 | 87.4 | 82.1 | 70.5 | 89.6 | 75.7 | No. of dead mice/No. of test animals (ddY mice; mouse, in vivo): 0/5
4 | CCOC(=O)C(C)(C)c1ccc(NC(=O)CC[C@H](N)C(=O)O)cc1 [Compound (14), N-[4-(1-Ethoxycarbonyl-1-methylethyl)phenyl]-L-glutamine] | 71.9 | – | 77.3 | 72.6 | – | – | –
5 | CCOC(=O)C(C)c1ccc(NC(=O)CC[C@H](N)C(=O)O)cc1 (stereo partly drawn) [Compound (15), N-[4-(1-Ethoxycarbonylethyl)phenyl]-L-glutamine] | 67.6 | – | 78.0 | 62.6 | – | – | –
6 | CCOC(=O)Cc1ccc(NC(=O)CC[C@H](N)C(=O)O)cc1 [Hydrochloride Compound (2)] | 90.0 | 75.7 | 79.6 | 90.7 | 81.8 | 67.2 | –
7 | N-(2-Ethoxycarbonylmethylphenyl)-L-glutamine [Compound (7)] | 86.8 | 84.8 | 92.4 | 91.1 | 92.8 | 82.3 | –
8 | N-(3-Ethoxycarbonylmethylphenyl)-L-glutamine [Compound (6)] | 84.3 | 82.8 | 94.6 | 83.2 | 81.1 | 83.1 | –
9 | N-(4-Carboxymethylphenyl)-L-glutamine [Compound (2)] | 62.3 | 66.2 | 69.7 | 65.9 | 78.8 | 65.0 | PFC × 2,500/spleen (Mean ± standard error) ([1]; 30 mg/kg P.O.): 99.0 ± 4.60 PFC × 2,500/spleen; PFC × 2,500/spleen (Mean ± standard error) ([1]; 100 mg/kg P.O.): 91.8 ± 18.6 PFC × 2,500/spleen; PFC × 2,500/spleen (Mean ± standard error) ([1]; 300 mg/kg P.O.): 73.4 ± 12.7 PFC × 2,500/spleen; PFC × 2,500/spleen (Mean ± standard error) ([2]; 30 mg/kg P.O.): 113.0 ± 20.4 PFC × 2,500/spleen; PFC × 2,500/spleen (Mean ± standard error) ([2]; 100 mg/kg P.O.): 160.0 ± 20.6 PFC × 2,500/spleen; PFC × 2,500/spleen (Mean ± standard error) ([2]; 300 mg/kg P.O.): 152.4 ± 11.4 PFC × 2,500/spleen; action on secondary inflammations (rat adjuvant arthritis; 3, 10 and 30 mg/kg orally): exerted an inhibitory action on these secondary inflammations in every dose; dose dependency of action on secondary inflammations (rat adjuvant arthritis; 3, 10 and 30 mg/kg orally): any definite dose dependency was not appreciated; decrease in body weight accompanying secondary inflammations (rat adjuvant arthritis; orally): an improving tendency; inhibitory action on primary inflammations caused by direct reaction of the adjuvant (rat adjuvant arthritis; orally): very slight; mutagenicity [3]: negative in mutagenicity; No. of dead mice/No. of test animals (ddY mice; [4]): 0/5; No. of dead mice/No. of test animals (ddY mice; [5]): 0/5
10 | N-(4-Ethoxycarbonylmethylphenyl)-L-glutamine [Compound (1)] | 91.7 | 76.4 | 85.2 | 78.2 | 85.7 | 74.5 | No. of dead mice/No. of test animals (ddY mice; [4]): 0/5; No. of dead mice/No. of test animals (ddY mice; [5]): 0/5
11 | N-(4-ethoxycarbonylmethylphenyl)-L-glutamine hydrochloride [Compound (11)] | 84.1 | 80.8 | 77.7 | 67.3 | 89.8 | 83.7 | –
12 | N-(4-n-Butyloxycarbonylmethylphenyl)-L-glutamine [Compound (5)] | 72.2 | 84.7 | 91.6 | 95.7 | 94.5 | 82.2 | –
13 | N-(4-n-Propyloxycarbonylmethylphenyl)-L-glutamine [Compound (4)] | 91.7 | 91.9 | 70.4 | 80.2 | 91.7 | 79.6 | –
14 | N-[4-(2-Ethoxycarbonylethyl)phenyl]-L-glutamine [Compound (8)] | 81.0 | 80.6 | 76.2 | 76.7 | 85.0 | 92.3 | –
15 | N-[4-(2-Ethoxycarbonylvinyl)phenyl]-L-glutamine [Compound (10)] | 85.8 | 109.9 | 100 | 101 | 81.3 | 82.6 | –
16 | N-[4-(3-Ethoxycarbonyl-n-propyl)phenyl]-L-glutamine [Compound (9)] | 100.6 | 96.7 | 91.3 | 80.2 | 85.3 | 88.9 | –
